# Measured values reported in the supplement of paper PMC11451515.
# Test system: P12-Ichikawa
# Assay: cell viability relative to DMSO control; higher = less cytotoxic
# Details: 48 h
# Method in brief: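 Library compounds in DMSO were pin-dosed into 1536-well plates (5 μl) holding NOMO1 or SEM (500 cells/well) or P12-Ichikawa (1000 cells/well) leukemia cells, across an 11-point threefold series of 47 μM to 0.79 nM. Each cell line had been adapted for at least four passages in each medium. CellTiter-Glo One luminescence was read after 48 h at 37°C. Viability is the per-plate percentage relative to DMSO wells, with cell-free wells as background.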
# [1] = HPLM + 10% dialyzed FBS, 0.000781 µM
# [2] = HPLM + 10% dialyzed FBS, 0.00234 µM
# [3] = HPLM + 10% dialyzed FBS, 0.00702 µM
# [4] = HPLM + 10% dialyzed FBS, 0.0211 µM
# [5] = HPLM + 10% dialyzed FBS, 0.0632 µM
# [6] = HPLM + 10% dialyzed FBS, 0.19 µM
# [7] = HPLM + 10% dialyzed FBS, 0.569 µM
# [8] = HPLM + 10% dialyzed FBS, 1.71 µM
# [9] = HPLM + 10% dialyzed FBS, 5.12 µM
# [10] = HPLM + 10% dialyzed FBS, 15.4 µM
# [11] = HPLM + 10% dialyzed FBS, 46.1 µM
# [12] = RPMI 5 mM glucose + 10% dialyzed FBS, 0.000781 µM
# [13] = RPMI 5 mM glucose + 10% dialyzed FBS, 0.00234 µM
# [14] = RPMI 5 mM glucose + 10% dialyzed FBS, 0.00702 µM
# [15] = RPMI 5 mM glucose + 10% dialyzed FBS, 0.0211 µM
# [16] = RPMI 5 mM glucose + 10% dialyzed FBS, 0.0632 µM
# [17] = RPMI 5 mM glucose + 10% dialyzed FBS, 0.19 µM
# [18] = RPMI 5 mM glucose + 10% dialyzed FBS, 0.569 µM
# [19] = RPMI 5 mM glucose + 10% dialyzed FBS, 1.71 µM
# [20] = RPMI 5 mM glucose + 10% dialyzed FBS, 5.12 µM
# [21] = RPMI 5 mM glucose + 10% dialyzed FBS, 15.4 µM
# [22] = RPMI 5 mM glucose + 10% dialyzed FBS, 46.1 µM
# [23] = RPMI 5 mM glucose + 10% FBS, 0.000781 µM
# [24] = RPMI 5 mM glucose + 10% FBS, 0.00234 µM
# [25] = RPMI 5 mM glucose + 10% FBS, 0.00702 µM
# [26] = RPMI 5 mM glucose + 10% FBS, 0.0211 µM
# [27] = RPMI 5 mM glucose + 10% FBS, 0.0632 µM
# [28] = RPMI 5 mM glucose + 10% FBS, 0.19 µM
# [29] = RPMI 5 mM glucose + 10% FBS, 0.569 µM
# [30] = RPMI 5 mM glucose + 10% FBS, 1.71 µM
# [31] = RPMI 5 mM glucose + 10% FBS, 5.12 µM
# [32] = RPMI 5 mM glucose + 10% FBS, 15.4 µM
# [33] = RPMI 5 mM glucose + 10% FBS, 46.1 µM
SMILES,cell viability [1],cell viability [2],cell viability [3],cell viability [4],cell viability [5],cell viability [6],cell viability [7],cell viability [8],cell viability [9],cell viability [10],cell viability [11],cell viability [12],cell viability [13],cell viability [14],cell viability [15],cell viability [16],cell viability [17],cell viability [18],cell viability [19],cell viability [20],cell viability [21],cell viability [22],cell viability [23],cell viability [24],cell viability [25],cell viability [26],cell viability [27],cell viability [28],cell viability [29],cell viability [30],cell viability [31],cell viability [32],cell viability [33]
CN(C)[S+](=O)([O-])c1ccc2c(c1)C(=Cc1cc3c([nH]1)CCCC3)C(=O)N2,124%,114%,122%,121%,123%,117%,125%,122%,111%,110%,112%,118%,125%,121%,116%,114%,125%,128%,124%,122%,106%,108%,,,,,,,,,,,
C[C@H]1C[C@@H]2[C@H](CC[C@@]3(C)[C@H]2CC[C@]3(OC(C)=O)C(C)=O)[C@@]\4(C)CCC(=O)\C=C14,99.8%,105%,111%,107%,122%,115%,114%,107%,98.7%,95.5%,107%,101%,113%,102%,107%,120%,103%,96.3%,93.7%,96%,80.1%,88.4%,112%,112%,123%,108%,113%,113%,110%,101%,94.3%,80.3%,96.3%
Cc1nn(Cc2ccccc2Cl)c(C)c1CN(C)CC(O)COc1ccc(Cl)cc1 (centres undefined),110%,101%,105%,104%,108%,108%,102%,97.4%,104%,95.1%,59.6%,94%,98.3%,95.2%,95.7%,98.2%,92.6%,94.9%,92.1%,89.4%,89.1%,39.6%,93.9%,94.5%,93%,108%,97%,101%,94.5%,91.5%,92.1%,83.7%,42.8%
C[C@](O)(CS(=O)(=O)c1ccc(F)cc1)C(=O)Nc1ccc(C#N)c(C(F)(F)F)c1,97.6%,115%,110%,120%,115%,115%,124%,119%,118%,114%,107%,102%,118%,126%,130%,122%,120%,132%,120%,130%,113%,101%,104%,110%,112%,109%,111%,108%,114%,110%,126%,119%,105%
CN[C@H]1CCC2=CC(=C(OC)C(=C2C/3=C/C=C(OC)\C(=O)/C=C13)OC)OC,107%,113%,104%,12.9%,19.9%,11.1%,11.2%,8.53%,9.25%,7.37%,3.31%,119%,118%,102%,21.1%,33.4%,19%,15.6%,11.3%,9.48%,8.81%,4.1%,113%,118%,102%,15.9%,22.2%,13.3%,9.95%,9.19%,7.3%,6.54%,2.29%
CCOC(=O)c1ccc(OC(=O)CCCCCNC(=N)N)cc1,117%,121%,123%,122%,125%,126%,124%,76%,10.7%,16.3%,17.4%,,,,,,,,,,,,,,,,,,,,,,
O=C1NC(=O)/C(=C/c2ccc3nccc(-c4ccncc4)c3c2)S1,112%,120%,122%,115%,98.4%,95.9%,83.8%,68.4%,57.4%,36.1%,5.85%,104%,109%,114%,115%,98.8%,83.3%,68.2%,51.1%,34.3%,20.6%,6.67%,109%,107%,103%,109%,96.2%,74.5%,64.2%,50.2%,32.6%,17.1%,7.42%
ClC1=CC=C(C=C1)C(C#N)C2=C(Cl)C=C(C=C2Cl)N3\N=C/C(=O)NC3=O (centres undefined),110%,106%,106%,110%,110%,115%,104%,110%,104%,86.3%,86.4%,95.7%,99.3%,104%,100%,105%,102%,93.7%,108%,96.3%,79.6%,76%,91%,94.7%,93.7%,94.7%,93.8%,101%,106%,98.7%,101%,85.1%,82.2%
Cc1ccccc1C(=O)c1ccc(Nc2ccc(Br)cc2N)cc1Cl,117%,122%,119%,104%,114%,118%,114%,114%,105%,98.6%,51.5%,117%,121%,127%,119%,122%,118%,117%,111%,105%,89%,35.5%,117%,122%,121%,110%,119%,108%,117%,113%,111%,108%,53.7%
CC1CNc2c(cccc2[S+](=O)([O-])N[C@@H](CCCNC(=N)N)C(=O)N2CC[C@@H](C)C[C@@H]2C(=O)O)C1 (some centres undefined),94.9%,107%,104%,100%,110%,118%,109%,111%,116%,105%,99.5%,101%,110%,104%,101%,111%,107%,107%,109%,112%,103%,89.4%,107%,113%,108%,117%,116%,114%,111%,116%,119%,116%,98.8%
CC(C)OC(=O)/C1=C/N(CC(C)(C)C2=C1[NH]C3=CC=CC=C23)C(=O)C4=CC=C(F)C(=C4)F,83.2%,84.5%,82.2%,89.6%,89.4%,83.4%,86.4%,83.9%,87.8%,91.6%,95.7%,75.3%,77.3%,78.1%,85.2%,78.5%,80.7%,75.9%,75.7%,78.4%,73.7%,82.4%,79%,78.7%,79%,79%,83.4%,83.9%,84.9%,82.9%,87.2%,84.1%,83.8%
CN[C@@H]1[C@@H](O)[C@@H](O[C@@H]2[C@@H](O)[C@H](O[C@H]3O[C@H](CN)[C@@H](O)[C@H](O)[C@H]3O)[C@@H](N)C[C@H]2NC(=O)[C@@H](O)CN)OC[C@]1(C)O,123%,131%,124%,122%,128%,120%,126%,113%,110%,108%,108%,,,,,,,,,,,,,,,,,,,,,,
O=C(O)CCC1CCC(c2cc(F)ccc2F)([S+](=O)([O-])c2ccc(Cl)cc2)CC1 (centres undefined),105%,114%,117%,115%,114%,121%,128%,118%,86.7%,21.5%,9.14%,103%,117%,123%,123%,123%,118%,124%,125%,112%,56.7%,13.2%,99%,125%,117%,126%,118%,116%,128%,140%,109%,24.3%,9.78%
C[C@](Cc1c[nH]c2ccccc12)(NC(=O)OC1C2CC3CC(C2)CC1C3)C(=O)NC[C@H](NC(=O)CCC(=O)O)c1ccccc1 (some centres undefined),112%,129%,125%,130%,131%,128%,138%,132%,122%,129%,122%,,,,,,,,,,,,,,,,,,,,,,
CCOC(=O)N1CCN(/[N+]([O-])=N/Oc2ccc([N+](=O)[O-])cc2C#N)CC1,97%,106%,108%,107%,106%,115%,113%,15.9%,9.82%,9.87%,9.31%,103%,101%,105%,111%,113%,108%,108%,16.4%,10.6%,9.71%,9.91%,110%,115%,117%,110%,118%,115%,119%,12.1%,9.8%,8.38%,7.09%
COc1cc(F)c(F)c(Nc2ccc(I)cc2F)c1N[S+](=O)([O-])C1(C[C@H](O)CO)CC1,114%,107%,110%,116%,111%,112%,110%,108%,106%,89%,42.7%,123%,120%,126%,118%,116%,104%,118%,122%,123%,97.3%,58.2%,110%,123%,128%,113%,112%,104%,115%,118%,115%,96.4%,74.8%
CNCCCC12CCC(c3ccccc31)c1ccccc12,93.5%,95.7%,96.7%,95.5%,103%,96.2%,95.8%,92.7%,87.8%,85.8%,63.5%,93%,98.2%,96.6%,101%,98.3%,88.7%,97.7%,85.7%,86.5%,73.1%,54.8%,94.1%,99.5%,102%,103%,104%,95.9%,91.8%,90.2%,84.4%,76.6%,62.6%
